For assay [1], the target named is T1, SARS-CoV-2 PLpro (nsp3 1564–1878) (Severe acute respiratory syndrome coronavirus 2, UniProt P0DTD1). Nature of the assay: biochemical. The conditions noted are these: read-out: % of control remaining. More on the design: FRET-quenched peptide (Pro3) cleavage by PLpro, 10 min pre-incubation, slope over 20 min, normalised to no-compound control.
The target in assay [2] is T1, SARS-CoV-2 PLpro (nsp3 1564–1878). Nature of the assay: biochemical. More on the design: FRET-quenched peptide (Pro3) cleavage by PLpro, 10 min pre-incubation, slope over 20 min, normalised to no-compound control. The conditions noted are these: read-out: % of control remaining. The source holds these as a separate data set.

The structures appear in SMILES notation. Where a name gives a salt, the structure may show the parent alone. Read-outs that look alike come from different tables or passages of the source. Where a SMILES comes first, the peptide text is derived from it. The star is where a group is joined. Cbz = O=C(OCc1ccccc1)*

`C=CCc1ccc(O)c(OC)c1` [Eugenol]: the remaining activity at 1.25 µM in assay [1] (Well no.=4005, low concentration screen) was 92.8%. Moreover, the remaining activity at 3.75 µM in assay [2] (Well no.=4005, high concentration screen) is 96.7%.

With `CC(C)CCN1c2nc(Nc3cc(F)c(O)c(F)c3)ncc2N(C)C(=O)C1C` (stereo not shown) [BI-D1870], the remaining activity at 1.25 µM in assay [1] (Well no.=2787, low concentration screen) came out at 101%. The remaining activity at 3.75 µM in assay [2] (Well no.=2787, high concentration screen) is 104%.

On to `O=C(O)c1cc(=O)c2c(OCC(O)COc3cccc4oc(C(=O)O)cc(=O)c34)cccc2o1` [Disodium Cromoglycate], for which, in assay [1] (Well no.=1857, low concentration screen), the remaining activity at 1.25 µM worked out at 102%. Further, in assay [2] (Well no.=1857, high concentration screen), the remaining activity at 3.75 µM came to 100%.

Consider `COc1cccc2c1C(=O)c1c(O)c3c(c(O)c1C2=O)C[C@@](O)(C(=O)CO)C[C@@H]3O[C@H]1C[C@H](N)[C@@H](O)[C@H](C)O1` [Epirubicin HCl], for which, in assay [1] (Well no.=5141, low concentration screen), the remaining activity at 1.25 µM turned out to be 106%. In addition, in assay [2] (Well no.=5141, high concentration screen), the remaining activity at 3.75 µM is 107%.

On to `Nc1ncnc2c1ncn2[C@H]1CC[C@@H](CO)O1` [2',3'-Dideoxyadenosine], for which, in assay [1] (Well no.=7998, low concentration screen), the remaining activity at 1.25 µM came to 97.5%. For the same compound, the remaining activity at 3.75 µM in assay [2] (Well no.=7998, high concentration screen) was 94.3%.

`CN(C)CCc1ccc(O)cc1` [Hordenine sulfate]: the remaining activity at 1.25 µM in assay [1] (Well no.=3106, low concentration screen) was determined as 97.9%. Further, in assay [2] (Well no.=3106, high concentration screen), the remaining activity at 3.75 µM was determined as 100%.

For `Oc1c2ccccc2c2c3c(cccc13)N=N2` [SP 600125 - Anthra[1-9-cd]pyrazol-6(2H)-one], the remaining activity at 1.25 µM in assay [1] (Well no.=2432, low concentration screen) was 96.1%. Moreover, the remaining activity at 3.75 µM in assay [2] (Well no.=2432, high concentration screen) was determined as 105%.

Take `Cc1ncc(C[n+]2csc(CCO)c2C)c(N)n1` [Thiamine HCl (Vitamin B1)]: the remaining activity at 1.25 µM in assay [1] (Well no.=4638, low concentration screen) is 94.5%. Further, the remaining activity at 3.75 µM in assay [2] (Well no.=4638, high concentration screen) was determined as 96.6%.

For the compound `CC1(C)[C@@H](O)C[C@H]2[C@](C)(O)[C@@H]3CC[C@@H]4[C@@H](O)[C@@]3(C[C@@H](O)[C@@]21O)C[C@@]4(C)O` [Grayanotoxin III], in assay [1], the remaining activity at 1.25 µM was found to be 103%. Besides, the remaining activity at 3.75 µM in assay [2] is 104%.

Consider `CNCCCC12CCC(c3ccccc31)c1ccccc12` [Maprotiline.HCl], for which, in assay [1] (Well no.=1787, low concentration screen), the remaining activity at 1.25 µM amounted to 95.1%. Also, the remaining activity at 3.75 µM in assay [2] (Well no.=1787, high concentration screen) was 96.8%.

Turning to `Clc1ccccc1C(c1ccccc1)(c1ccccc1)n1cccn1` [TRAM-34], the remaining activity at 1.25 µM in assay [1] (Well no.=4707, low concentration screen) turned out to be 107%. Further, in assay [2] (Well no.=4707, high concentration screen), the remaining activity at 3.75 µM is 103%.

In the case of `CC1(C)CCC=[N+]1[O-]` [5,5-Dimethyl-1-pyrroline-N-oxide], in assay [1] (Well no.=501, low concentration screen), the remaining activity at 1.25 µM turned out to be 97%. In addition, the remaining activity at 3.75 µM in assay [2] (Well no.=501, high concentration screen) is 97.1%.

On to `CC(C)C[C@@H](C=O)NC(=O)[C@H](CC(C)C)NC(=O)[C@H](CC(C)C)NC(=O)OCc1ccccc1` [MG-132] (Cbz-Leu-Leu-Leu-aldehyde), for which the remaining activity at 1.25 µM in assay [1] (Well no.=8436, low concentration screen) came out at 96.8%. For the same compound, the remaining activity at 3.75 µM in assay [2] (Well no.=8436, high concentration screen) came to 97.5%.

Take `CN(C)C(=O)Oc1cc(OC(=O)N(C)C)cc(C(O)CNC(C)(C)C)c1` (stereo not shown) [5-(2-(tert-butylamino)-1-hydroxyethyl)-1,3-phenylene bis(dimethylcarbamate) hydrochloride]: the remaining activity at 1.25 µM in assay [1] (Well no.=5871, low concentration screen) was determined as 104%. In assay [2] (Well no.=5871, high concentration screen), the remaining activity at 3.75 µM is 103%.

With `COc1ccc(CC[C@@H](OC(=O)[C@@H]2CCCCN2C(=O)[C@H](c2cc(OC)c(OC)c(OC)c2)C2CCCCC2)c2cccc(OCCN3CCOCC3)c2)cc1OC` [SAFit2], the remaining activity at 1.25 µM in assay [1] (Well no.=7064, low concentration screen) turned out to be 96.3%. Further, the remaining activity at 3.75 µM in assay [2] (Well no.=7064, high concentration screen) was found to be 92.2%.

In the case of `COc1cc2c(cc1Cc1cccc(Cl)c1F)c(=O)c(C(=O)O)cn2[C@H](CO)C(C)C` [Elvitegravir (GS-9137)], the remaining activity at 1.25 µM in assay [1] (Well no.=5008, low concentration screen) amounted to 99.3%. For the same compound, in assay [2] (Well no.=5008, high concentration screen), the remaining activity at 3.75 µM worked out at 101%.

For the compound `NC(=O)c1cc[n+](CC2=C(C(=O)O)N3C(=O)[C@@H](NC(=O)[C@@H](c4ccccc4)S(=O)(=O)[O-])[C@H]3SC2)cc1` [Cefsulodin sodium salt hydrate], the remaining activity at 1.25 µM in assay [1] (Well no.=92, low concentration screen) was found to be 98.3%. Also, the remaining activity at 3.75 µM in assay [2] (Well no.=92, high concentration screen) is 99.3%.

In the case of `COc1ccccc1CN[C@H]1C2CCN(CC2)[C@H]1C(c1ccccc1)c1ccccc1` [CP-96345], the remaining activity at 1.25 µM in assay [1] (Well no.=5867, low concentration screen) was 97.7%. For the same compound, in assay [2] (Well no.=5867, high concentration screen), the remaining activity at 3.75 µM was 96.7%.

For the compound `Cc1cnc(-c2cnc(NCCNc3ccc(C#N)cn3)nc2-c2ccc(Cl)cc2Cl)[nH]1` [CHIR99021], in assay [1] (Well no.=5511, low concentration screen), the remaining activity at 1.25 µM was 99.8%. Besides, the remaining activity at 3.75 µM in assay [2] (Well no.=5511, high concentration screen) came out at 101%.

In the case of `N[C@H](CCCCCP(=O)(O)O)C(=O)O` [D(-)-2-Amino-7-phosphonoheptanoic acid], the remaining activity at 1.25 µM in assay [1] (Well no.=352, low concentration screen) came out at 96.5%. The remaining activity at 3.75 µM in assay [2] (Well no.=352, high concentration screen) was found to be 98.1%.

For `CC(=O)N[C@H]1[C@@H](O[C@@H]2O[C@H](C[C@@H](O)[C@@H]3O[C@H](n4ccc(=O)[nH]c4=O)[C@@H](O)[C@H]3O)[C@H](O)[C@H](O)[C@H]2NC(=O)/C=C/CCCCCCCCCCC(C)C)O[C@H](CO)[C@@H](O)[C@@H]1O` [Tunicamycin B], in assay [1] (Well no.=3190, low concentration screen), the remaining activity at 1.25 µM amounted to 104%. For the same compound, in assay [2] (Well no.=3190, high concentration screen), the remaining activity at 3.75 µM amounted to 103%.

Take `O=C(c1ccc(OCCN2CCCCC2)cc1)c1c(-c2ccc(O)cc2)sc2cc(O)ccc12` [Raloxifene hydrochloride]: the remaining activity at 1.25 µM in assay [1] (Well no.=1204, low concentration screen) came to 97.4%. Further, the remaining activity at 3.75 µM in assay [2] (Well no.=1204, high concentration screen) is 99.2%.

As to `C[C@@H]1O[C@H](C[N+](C)(C)C)C[C@H]1O` [(+)-Muscarine chloride], the remaining activity at 1.25 µM in assay [1] (Well no.=3254, low concentration screen) was found to be 97.9%. Also, in assay [2] (Well no.=3254, high concentration screen), the remaining activity at 3.75 µM was determined as 99.2%.

In the case of `CCCCCCCCCCCCCCCCCCCC(=O)O` [Eicosanoic acid], the remaining activity at 1.25 µM in assay [1] (Well no.=4400, low concentration screen) stood at 94.6%. In addition, the remaining activity at 3.75 µM in assay [2] (Well no.=4400, high concentration screen) stood at 93.4%.

As to `CC1=C(C)C(=O)C(C(CCCCCC(=O)O)c2ccccc2)=C(C)C1=O` (stereo not shown) [Seratrodast], the remaining activity at 1.25 µM in assay [1] (Well no.=3857, low concentration screen) worked out at 98.1%; in assay [1] (Well no.=7375, low concentration screen), 103%. Further, the remaining activity at 3.75 µM was found to be 102% in assay [2] (Well no.=3857, high concentration screen) and 103% in assay [2] (Well no.=7375, high concentration screen).

Turning to `Cn1cnc2c(NC3CCCC3)ncnc21` [N6-Cyclopentyl-9-methyladenine], the remaining activity at 1.25 µM in assay [1] (Well no.=988, low concentration screen) was found to be 96.8%. Also, the remaining activity at 3.75 µM in assay [2] (Well no.=988, high concentration screen) turned out to be 99.1%.

Take `C[C@@H](NCCc1ccc(O)cc1)[C@@H](O)c1ccc(O)cc1` (racemic) [Ritodrine hydrochloride]: in assay [1] (Well no.=1156, low concentration screen), the remaining activity at 1.25 µM is 97.7%. Further, the remaining activity at 3.75 µM in assay [2] (Well no.=1156, high concentration screen) came out at 103%.

Consider `O=C(O)Cc1ccc(O)c(O)c1` [3,4-Dihydroxyphenylacetic acid], for which the remaining activity at 1.25 µM in assay [1] (Well no.=442, low concentration screen) was determined as 103%. Besides, in assay [2] (Well no.=442, high concentration screen), the remaining activity at 3.75 µM stood at 104%.

As for `C[C@]12CC[C@@H]3c4ccc(O)cc4CC[C@H]3[C@@H]1CC[C@@H]2O` [beta-Estradiol], the remaining activity at 1.25 µM in assay [1] (Well no.=511, low concentration screen) is 107%. In addition, the remaining activity at 3.75 µM in assay [2] (Well no.=511, high concentration screen) was 104%.

As for `c1ccc(CN2CCC3(CCCc4ccccc43)CC2)cc1` [L-687,384 hydrochloride], the remaining activity at 1.25 µM in assay [1] (Well no.=1123, low concentration screen) was determined as 96.4%. The remaining activity at 3.75 µM in assay [2] (Well no.=1123, high concentration screen) turned out to be 97.2%.

For the compound `O=C1Nc2ccc(I)cc2/C1=C/c1cc(Br)c(O)c(Br)c1` [GW 5074 - 3-(3,5-Dibromo-4-hydroxy-benzylidene)-5-iodo-1,3-dihydro-indol-2-one], the remaining activity at 1.25 µM in assay [1] (Well no.=2392, low concentration screen) was determined as 97.9%. Also, the remaining activity at 3.75 µM in assay [2] (Well no.=2392, high concentration screen) worked out at 101%.

The values are drawn from PMC8286840, “Identifying SARS-CoV-2 antiviral compounds by screening for small molecule inhibitors of Nsp3 papain-like protease” (Biochemical Journal, 2021).
